Results: patent EP0923548B1, “4-A[…] AS DOPAMIN D2 AGONISTS AND AS 5HT 1A LIGANDS” (Wyeth, priority 1996, dated 1998)

Molecular target: T1, dopamine autoreceptor (Rattus norvegicus, UniProt P61169)
T1 construct: homogenized rat striatal brain tissue; from tissue; host or cells: rat striatal brain tissue homogenate
Test: Dopamine autoreceptor affinity, 3H-quinpirole binding in homogenized rat striatal brain tissue
Settings: for Ratio ant/agonist: ratio of D2 Spiper IC50 to D2 Quin. IC50 (LowAg/HighAg, predicts intrinsic activity)
Procedure: Affinity for the dopamine autoreceptor was established by a modification of the standard experimental test procedure of Seemen and Schaus, European Journal of Pharmacology 203, 105-109 (1991), wherein homogenized rat striatal brain tissue is incubated with ^3H-quinpirole (Quin.)and various concentrations of test compound, filtered and washed and counted in a Betaplate scintillation counter.

T1 sequence (P61169 whole entry): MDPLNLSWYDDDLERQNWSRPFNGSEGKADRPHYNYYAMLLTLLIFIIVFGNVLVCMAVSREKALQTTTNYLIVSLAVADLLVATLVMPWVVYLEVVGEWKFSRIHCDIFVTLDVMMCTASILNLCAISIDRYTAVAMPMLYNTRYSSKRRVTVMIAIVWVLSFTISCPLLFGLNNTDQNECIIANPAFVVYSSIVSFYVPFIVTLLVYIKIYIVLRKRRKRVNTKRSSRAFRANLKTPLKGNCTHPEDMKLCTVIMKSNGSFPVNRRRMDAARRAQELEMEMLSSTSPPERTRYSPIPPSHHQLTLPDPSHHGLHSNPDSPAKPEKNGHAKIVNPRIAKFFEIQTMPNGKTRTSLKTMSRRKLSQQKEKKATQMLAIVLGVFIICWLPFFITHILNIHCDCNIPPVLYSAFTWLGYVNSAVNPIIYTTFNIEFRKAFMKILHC

Row | Compound | IC50 [µM] | Ratio ant/agonist
1 | c1ccc(CNCCOc2cccc3[nH]ccc23)cc1 [(3b), N-Benzyl-[2-(1H-indol-4-yloxy)]-ethylamine] | 0.0194 | 26
2 | O=C(c1c[nH]c2cccc(OCCNCc3ccccc3)c12)C(F)(F)F [(3a), 1-[4-(2-Benzylamino-ethoxy)-1H-indol-3-yl]-2,2,2-trifluoro-ethanone] | 0.00593 | 48
3 | Clc1ccc(OCCNCc2cccs2)c2c(Cl)c[nH]c12 [(1f), Thien-2-ylmethyl-[2-(3,7-dichloro-1H-indol-4-yloxy)-ethyl]-amine] | 0.0225 | 18
4 | Clc1ccc(OCCNCc2ccccc2)c2cc[nH]c12 [(1b), Benzyl-[2-(7-chloro-1H-indol-4-yloxy)-ethyl]-amine] | 0.0149 | 12
5 | Clc1ccc(OCCNCc2ccccc2)c2c(Cl)c[nH]c12 [(1c), Benzyl-[2-(3,7-dichloro-1H-indol-4-yloxy)-ethyl]-amine] | 0.0136 | 21
6 | c1ccc(CCCCNCCOc2cccc3[nH]ccc23)cc1 [(1a), [2-(1H-Indol-4-yloxy)-ethyl]-(4-phenyl-butyl)-amine] | 0.0105 | 18
7 | Clc1c[nH]c2cccc(OCCNCCCCc3ccccc3)c12 [(2a), [2-(3-Chloro-1H-indol-4-yloxy)-ethyl]-(4-phenyl-butyl)-amine] | 0.00955 | 20
